Reference: ChEMBL document CHEMBL1155783, “Novel sterically hindered cannabinoid CB1 receptor ligands” (Bioorg Med Chem, 2008)
Activity calls are given as the source filed them. The rule behind the calls is not given here.

What was measured:
Cannabinoid receptor 2 = Cannabinoid receptor 2 (Homo sapiens, UniProt P34972); assay: Displacement of [3H]CP-55940 from human recombinant CB2 receptor expressed in HEK cells; type: cell-based, HEK293
Cannabinoid receptor 1 = Cannabinoid receptor 1 (Homo sapiens, UniProt P21554); assay: biochemical; type: cell-based, HEK293
Description: Displacement of [3H]CP-55940 from human recombinant CB1 receptor expressed in HEK cells

[1] = target: Cannabinoid receptor 1 (Mus musculus) (UniProt P47746); assay: Agonist activity at mouse CB1 receptor in N18TG2 cells assessed as inhibition of forskolin-stimulated cAMP formation at 1 uM in presence of 0.1 uM WIN-55212-2
Homo sapiens = organism: Homo sapiens; assay: Selectivity of Ki for human recombinant CB1 receptor over Ki for human recombinant CB2 receptor

Sequence of Cannabinoid receptor 2 (P34972 whole entry): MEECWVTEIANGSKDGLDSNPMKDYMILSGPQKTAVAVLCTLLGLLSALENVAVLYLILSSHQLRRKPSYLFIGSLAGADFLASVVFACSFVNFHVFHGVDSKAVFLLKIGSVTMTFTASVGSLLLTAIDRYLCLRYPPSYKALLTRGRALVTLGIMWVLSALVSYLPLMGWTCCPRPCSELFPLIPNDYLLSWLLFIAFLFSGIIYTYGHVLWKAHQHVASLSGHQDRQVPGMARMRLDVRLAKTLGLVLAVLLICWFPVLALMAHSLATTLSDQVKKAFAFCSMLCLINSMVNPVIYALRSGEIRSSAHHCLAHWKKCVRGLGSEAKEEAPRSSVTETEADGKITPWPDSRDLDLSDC
Sequence of Cannabinoid receptor 1 (P21554 whole entry): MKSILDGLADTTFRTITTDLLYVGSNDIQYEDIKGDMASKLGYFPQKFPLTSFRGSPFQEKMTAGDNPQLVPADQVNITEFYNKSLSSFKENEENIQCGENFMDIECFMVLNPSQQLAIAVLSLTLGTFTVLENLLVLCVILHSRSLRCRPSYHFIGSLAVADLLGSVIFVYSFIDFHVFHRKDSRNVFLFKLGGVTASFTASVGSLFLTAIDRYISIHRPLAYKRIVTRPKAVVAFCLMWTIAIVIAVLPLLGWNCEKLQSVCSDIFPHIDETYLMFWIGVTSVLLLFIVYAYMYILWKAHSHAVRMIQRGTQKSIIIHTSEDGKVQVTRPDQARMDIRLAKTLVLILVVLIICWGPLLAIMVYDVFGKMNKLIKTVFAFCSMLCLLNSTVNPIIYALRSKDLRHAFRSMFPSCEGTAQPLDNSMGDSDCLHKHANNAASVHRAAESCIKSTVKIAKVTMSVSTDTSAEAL
Sequence of Cannabinoid receptor 1 (Mus musculus) (P47746 whole entry, looked up): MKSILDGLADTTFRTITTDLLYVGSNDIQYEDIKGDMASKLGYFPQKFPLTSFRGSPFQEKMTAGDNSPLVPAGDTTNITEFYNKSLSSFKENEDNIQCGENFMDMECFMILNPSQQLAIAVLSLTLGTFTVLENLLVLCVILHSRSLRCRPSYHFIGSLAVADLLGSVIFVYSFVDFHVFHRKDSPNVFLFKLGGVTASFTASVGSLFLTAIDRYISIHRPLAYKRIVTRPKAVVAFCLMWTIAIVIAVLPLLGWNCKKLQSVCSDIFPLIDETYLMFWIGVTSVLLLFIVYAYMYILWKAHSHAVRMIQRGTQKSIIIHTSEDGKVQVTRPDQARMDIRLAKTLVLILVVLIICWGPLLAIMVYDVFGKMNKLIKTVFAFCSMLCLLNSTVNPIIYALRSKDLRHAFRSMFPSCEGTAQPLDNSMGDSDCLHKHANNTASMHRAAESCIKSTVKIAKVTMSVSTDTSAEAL

Row | Ki (Cannabinoid receptor 2) [nM] | Ki (Cannabinoid receptor 1) [nM] | Activity [1] | Ratio Ki (Homo sapiens) | Compound
1 | > 7900 | 560 |  |  | O=C(NCCC(c1ccccc1)c1ccccc1)C(c1ccccc1)c1ccc(Cl)cc1 (stereo unspecified)
2 | 1800 | 1900 |  |  | O=C(NCCCc1ccccc1)C(c1ccccc1)c1ccc(Br)cc1 (stereo unspecified)
3 | > 7900 | 220 |  |  | O=C(NCCC(c1ccccc1)c1ccccc1)C(c1ccccc1)c1ccc(Br)cc1 (stereo unspecified)
4 | 790 | 560 |  |  | O=C(NCCC(c1ccccc1)c1ccccc1)C(c1ccccc1)c1ccc([N+](=O)[O-])cc1 (stereo unspecified)
5 | > 7900 | 560 |  |  | O=C(Cc1ccccc1)NCCC(c1ccccc1)c1ccccc1
6 | 2400 | 2200 |  |  | O=C(NCCCc1ccccc1)C(c1ccccc1)c1ccc(Cl)cc1 (stereo unspecified)
7 | 1200 | 900 |  |  | Nc1ccc(C(C(=O)NCCC(c2ccccc2)c2ccccc2)c2ccccc2)cc1 (stereo unspecified)
8 | 790 | 560 |  |  | COc1ccc(C(C(=O)NCCC(c2ccccc2)c2ccccc2)c2ccccc2)cc1 (stereo unspecified)
9 | 2400 | 1600 |  |  | O=C(Cc1ccc(Cl)cc1)NCCC(c1ccccc1)c1ccccc1
10 | 7900 | 58 | inactive | 140 | O=C(NCCC(c1ccccc1)c1ccccc1)C(c1ccccc1)c1ccccc1
11 | > 7900 | 3400 |  |  | O=C(NCCCc1ccccc1)C(c1ccccc1)c1ccccc1
12 | 1300 | 800 |  |  | O=C(Cc1ccc(Br)cc1)NCCC(c1ccccc1)c1ccccc1
13 | 1100 | 560 |  |  | O=C(NCCC(c1ccccc1)c1ccccc1)C(c1ccccc1)c1ccc(O)cc1 (stereo unspecified)
14 | 650 | 560 |  |  | Cc1ccc(C(C(=O)NCCC(c2ccccc2)c2ccccc2)c2ccccc2)cc1 (stereo unspecified)
15 | 290 | 560 |  |  | CC(C(=O)NCCC(c1ccccc1)c1ccccc1)(c1ccccc1)c1ccccc1
16 | 1400 | 280 |  |  | O=C(NCCC(c1ccccc1)c1ccccc1)C(Cl)(c1ccccc1)c1ccccc1

Row | Compound | Ki (Cannabinoid receptor 2) [nM] | Ki (Cannabinoid receptor 1) [nM] | Activity [1] | Ratio Ki (Homo sapiens)
17 | O=C(NCCC(c1ccccc1)c1ccccc1)C(O)(c1ccccc1)c1ccccc1 | 2300 | 2200 |  | 
